Consider 17 molecules from ChEMBL document CHEMBL1201862, “PubChem BioAssay data set” (2004).

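Values below derive from 48-hour exposures of cells grown in 96-well plates, with endpoints linearly interpolated between the two concentrations bracketing the appropriate inhibition level. GI50 is the concentration that inhibits growth by half.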 The source made the active and inactive calls. No stated cut-off is given here; in the data, active = GI50 up to about 1.1 µM and inactive = higher.

Among the test systems are DMS-273; LXFL 529; HOP-18; M19-MEL; DLD-1; KM-20L2; XF498; RXF 631; SNB-78.
Holding throughout (assay): NCI tumour cell line growth inhibition, 48 h

As to `CCN(CC)Cc1cc(Nc2c3ccccc3nc3c2[nH]c2ccccc23)ccc1O`, the GI50 is 0.565 µM (active) with DMS-273; 1.39 µM (inactive) with LXFL 529; 1.6 µM (inactive) in the assay with HOP-18; 1.63 µM (inactive) with M19-MEL; 1.25 µM (inactive) in the assay on DLD-1; 0.867 µM (active) with KM-20L2. Moreover, the GI50 in the assay on XF498 was 1.76 µM (inactive); in the assay with RXF 631, 1.8 µM (inactive); in the assay on SNB-78, 2 µM (inactive).
Take `N#CCC(=O)N1CCCCCCC1`: the GI50 in the assay with DMS-273 was 35.7 µM (inactive); with LXFL 529 it was 77.8 µM (inactive); in the assay on DLD-1, > 100 µM (inactive); in the assay with KM-20L2, > 100 µM (inactive); with SNB-78, > 100 µM (inactive).
On to `NC(=O)C(=O)n1ncc(Cl)c(Cl)c1=O`, for which the GI50 is 25 µM (inactive) in the assay on DMS-273; 15.1 µM (inactive) in the assay with LXFL 529; 20 µM (inactive) in the assay on HOP-18; 24.7 µM (inactive) in the assay on M19-MEL; 15.3 µM (inactive) in the assay on DLD-1; 28.7 µM (inactive) in the assay with KM-20L2. Further, the GI50 with XF498 was 17 µM (inactive); with SNB-78, 20.3 µM (inactive).
`CCOC(=O)C(=C=Cc1cccs1)C(=O)c1ccccc1`: the GI50 in the assay with DMS-273 is 17.4 µM (inactive); with LXFL 529 it was 14.9 µM (inactive); with HOP-18, 17.5 µM (inactive); with M19-MEL, 17.2 µM (inactive); in the assay with DLD-1, 14.3 µM (inactive); with XF498 it was 16.2 µM (inactive). In addition, the GI50 in the assay on SNB-78 is 18.3 µM (inactive).
On to `COC(=O)C1=C(O)C(O)=C(C(=O)OC)CC1`, for which the GI50 with DMS-273, in the assay on LXFL 529, in the assay with HOP-18, with M19-MEL, in the assay on DLD-1 and in the assay on XF498 was > 100 µM (inactive) throughout. Also, the GI50 in the assay with SNB-78 was > 100 µM (inactive).
As to `CC1(C)OCC(CO)(Nc2nc(N3CC3)nc(N3CC3)n2)CO1`, the GI50 with DMS-273 is 3.04 µM (inactive); in the assay with LXFL 529, 24.5 µM (inactive); with HOP-18, 27 µM (inactive); with M19-MEL it was 13.9 µM (inactive); in the assay with DLD-1 it was 31.3 µM (inactive); with KM-20L2, 18.6 µM (inactive). Moreover, the figures for the GI50 with XF498 and with SNB-78 were 14.3 µM (inactive) and 22.3 µM (inactive), respectively.
As for `O=C(NC12CC3CC(CC(F)(C3)C1)C2)c1ccccc1`, the GI50 in the assay with DMS-273, in the assay with LXFL 529, in the assay with M19-MEL, with DLD-1, with KM-20L2 and with XF498 was > 100 µM (inactive) each time. Further, the GI50 in the assay on SNB-78 is > 100 µM (inactive).
On to `O=C1CSC(/C(=C/c2ccccc2)c2nc3ccccc3[nH]2)=N1`, for which the GI50 with LXFL 529 is 47.4 µM (inactive); in the assay with M19-MEL, 65.9 µM (inactive); in the assay on DLD-1 it was > 100 µM (inactive); in the assay on KM-20L2, > 100 µM (inactive); in the assay on XF498, 41.3 µM (inactive); in the assay on SNB-78, > 100 µM (inactive).
Take `N#CC(C#N)=C1SCC(=O)CS1`: the GI50 in the assay on DMS-273, in the assay with LXFL 529, with M19-MEL, with DLD-1, in the assay with KM-20L2 and in the assay on XF498 was > 100 µM (inactive) each time. In addition, the GI50 in the assay with RXF 631 and in the assay on SNB-78 was > 100 µM (inactive) each time.
Turning to `CCCC(O)c1cn(-c2cccc(S(=O)(=O)O)c2)nn1` (stereo not drawn), the GI50 in the assay on DMS-273, in the assay with LXFL 529, with HOP-18, in the assay on M19-MEL, in the assay with DLD-1 and with KM-20L2 was > 100 µM (inactive) in each case. Also, the GI50 with XF498, with RXF 631 and with SNB-78 was > 100 µM (inactive) throughout.
As to `CC(C)(C)NNC(=O)/C(=C/c1ccc([N+](=O)[O-])cc1)NC(=O)c1ccccc1`, the GI50 in the assay on DMS-273 is 33.7 µM (inactive); in the assay with LXFL 529, > 100 µM (inactive); with HOP-18, > 100 µM (inactive); in the assay on M19-MEL, > 100 µM (inactive); in the assay with DLD-1, 43.5 µM (inactive); with KM-20L2, > 100 µM (inactive). The GI50 with XF498 and in the assay on SNB-78 was > 100 µM (inactive) throughout.
Regarding `COc1ccc(/C=N/N=C(\N)NO)cc1O`, the GI50 is > 100 µM (inactive) in the assay on LXFL 529, > 100 µM (inactive) in the assay on HOP-18, 33.8 µM (inactive) with DLD-1 and > 100 µM (inactive) in the assay with SNB-78.
Regarding `C=CCc1cc(-c2cc(CC=C)c(O)c(CNC)c2)cc(CNC)c1O`, the GI50 is 15.2 µM (inactive) with LXFL 529; 14.2 µM (inactive) with M19-MEL; 15.4 µM (inactive) with DLD-1; 16.6 µM (inactive) with KM-20L2; 16.3 µM (inactive) with XF498; 15.3 µM (inactive) with RXF 631. The GI50 in the assay on SNB-78 is 19.5 µM (inactive).
For `O=C(COC(=O)c1cccc2c(=O)c3ccccc3[nH]c12)Nc1ccc(Cl)cc1`, the GI50 was 61.7 µM (inactive) in the assay with LXFL 529; > 100 µM (inactive) in the assay on HOP-18; > 100 µM (inactive) with M19-MEL; 16.9 µM (inactive) with DLD-1; > 100 µM (inactive) with KM-20L2; 46.8 µM (inactive) in the assay on XF498. The GI50 in the assay with SNB-78 was 25.7 µM (inactive).
Consider `N#CC1CC2(C(=O)C1=O)c1ccccc1-c1ccccc12` (stereo not drawn), for which the GI50 in the assay on DMS-273 is > 100 µM (inactive); in the assay on LXFL 529, > 100 µM (inactive); in the assay with HOP-18, 82 µM (inactive); in the assay on M19-MEL it was > 100 µM (inactive); in the assay with DLD-1, > 100 µM (inactive); in the assay on KM-20L2, > 100 µM (inactive).
On to `CC(=O)Oc1ccccc1C(=O)C1c2cccc(O)c2C(=O)c2c(O)cccc21`, for which the GI50 was 1.24 µM (inactive) with DMS-273; 1.29 µM (inactive) in the assay with LXFL 529; 2.16 µM (inactive) in the assay with HOP-18; 1.01 µM (active) with M19-MEL; 1.23 µM (inactive) with DLD-1; 2.4 µM (inactive) in the assay with KM-20L2. Besides, the values for the GI50 in the assay on XF498, in the assay with RXF 631 and with SNB-78 were 0.561 µM (active), 3.01 µM (inactive) and 1.27 µM (inactive), respectively.
Regarding `C/C(=N/Nc1ccc([N+](=O)[O-])cc1[N+](=O)[O-])C(CC(C(=O)Nc1ccccc1C)/C(C)=N\Nc1ccc([N+](=O)[O-])cc1[N+](=O)[O-])C(=O)Nc1ccccc1C` (stereo not drawn), the GI50 was 14.8 µM (inactive) in the assay on DMS-273; 14.3 µM (inactive) in the assay on LXFL 529; 14.4 µM (inactive) with HOP-18; 12.4 µM (inactive) with M19-MEL; 28.4 µM (inactive) with DLD-1; 31 µM (inactive) in the assay on KM-20L2. Further, the results for the GI50 in the assay with XF498 and with SNB-78 were 14.5 µM (inactive) and 16.4 µM (inactive), respectively.
